Consider 27 compounds from US12240815B2, “Potent and selective human neuronal nitric oxide synthase inhibitors” (Northwestern University, priority 2020, dated 2025).

Counter-ions that a name gives are not always drawn. Like-named read-outs stand apart in the source and are kept apart here.

One data set addresses rat nNOS (Rattus norvegicus, UniProt P29476). In words: NO hemoglobin capture assay, rat nNOS. Type of data set: biochemical. Conditions: for Selectivity n/i: nNOS versus iNOS.
The next data set has as its target human nNOS (Homo sapiens, UniProt P29475). In words: NO hemoglobin capture assay, human nNOS. Type of data set: biochemical. The note with it: for Selectivity Human n/e: human nNOS versus human eNOS.
In the next data set the target is murine macrophage iNOS (Mus musculus, UniProt P29477). Nature of the data set: NO hemoglobin capture assay, murine iNOS. Format: biochemical. The note with it: Table 1; Ki from IC50 by Cheng-Prusoff; 10 μM L-Arg, pH 7.4, 37° C.
A further data set can be described thus: PAMPA-BBB assay. The note with it: for Papp at 17 h, 200 μM: PAMPA, pH 7.5; for Pe PAMPA-BBB: Table 4. A general note: PAMPA measures passive passage across an artificial lipid membrane.
The target in a further data set is human eNOS (Homo sapiens, UniProt P29474). Nature of the data set: NO hemoglobin capture assay, human eNOS.
A further data set has as its target iNOS (Mus musculus, UniProt P29477). Nature of the data set: NO hemoglobin capture assay, iNOS (Table 4, species not given).
A further data set has as its target human iNOS (Homo sapiens, UniProt P35228). Nature of the data set: NO hemoglobin capture assay, human iNOS.
Setting [1] is: pH 7.4, read-out: Ki human nNOS.
Setting [2] is: Table 4, read-out: Ki Human nNOS.
[3] abbreviates: Table 5, Ki from IC50 by Cheng-Prusoff, 8 to 11 concentrations, read-out: Ki RnNOS.
Setting [4] is: Table 5, Ki from IC50 by Cheng-Prusoff, 8 to 11 concentrations, read-out: Ki HnNOS.
Setting [5] is: read-out: Ki HiNOS, Table 5, Ki from IC50 by Cheng-Prusoff, 8 to 11 concentrations.

Sequence of rat nNOS (P29476 whole entry): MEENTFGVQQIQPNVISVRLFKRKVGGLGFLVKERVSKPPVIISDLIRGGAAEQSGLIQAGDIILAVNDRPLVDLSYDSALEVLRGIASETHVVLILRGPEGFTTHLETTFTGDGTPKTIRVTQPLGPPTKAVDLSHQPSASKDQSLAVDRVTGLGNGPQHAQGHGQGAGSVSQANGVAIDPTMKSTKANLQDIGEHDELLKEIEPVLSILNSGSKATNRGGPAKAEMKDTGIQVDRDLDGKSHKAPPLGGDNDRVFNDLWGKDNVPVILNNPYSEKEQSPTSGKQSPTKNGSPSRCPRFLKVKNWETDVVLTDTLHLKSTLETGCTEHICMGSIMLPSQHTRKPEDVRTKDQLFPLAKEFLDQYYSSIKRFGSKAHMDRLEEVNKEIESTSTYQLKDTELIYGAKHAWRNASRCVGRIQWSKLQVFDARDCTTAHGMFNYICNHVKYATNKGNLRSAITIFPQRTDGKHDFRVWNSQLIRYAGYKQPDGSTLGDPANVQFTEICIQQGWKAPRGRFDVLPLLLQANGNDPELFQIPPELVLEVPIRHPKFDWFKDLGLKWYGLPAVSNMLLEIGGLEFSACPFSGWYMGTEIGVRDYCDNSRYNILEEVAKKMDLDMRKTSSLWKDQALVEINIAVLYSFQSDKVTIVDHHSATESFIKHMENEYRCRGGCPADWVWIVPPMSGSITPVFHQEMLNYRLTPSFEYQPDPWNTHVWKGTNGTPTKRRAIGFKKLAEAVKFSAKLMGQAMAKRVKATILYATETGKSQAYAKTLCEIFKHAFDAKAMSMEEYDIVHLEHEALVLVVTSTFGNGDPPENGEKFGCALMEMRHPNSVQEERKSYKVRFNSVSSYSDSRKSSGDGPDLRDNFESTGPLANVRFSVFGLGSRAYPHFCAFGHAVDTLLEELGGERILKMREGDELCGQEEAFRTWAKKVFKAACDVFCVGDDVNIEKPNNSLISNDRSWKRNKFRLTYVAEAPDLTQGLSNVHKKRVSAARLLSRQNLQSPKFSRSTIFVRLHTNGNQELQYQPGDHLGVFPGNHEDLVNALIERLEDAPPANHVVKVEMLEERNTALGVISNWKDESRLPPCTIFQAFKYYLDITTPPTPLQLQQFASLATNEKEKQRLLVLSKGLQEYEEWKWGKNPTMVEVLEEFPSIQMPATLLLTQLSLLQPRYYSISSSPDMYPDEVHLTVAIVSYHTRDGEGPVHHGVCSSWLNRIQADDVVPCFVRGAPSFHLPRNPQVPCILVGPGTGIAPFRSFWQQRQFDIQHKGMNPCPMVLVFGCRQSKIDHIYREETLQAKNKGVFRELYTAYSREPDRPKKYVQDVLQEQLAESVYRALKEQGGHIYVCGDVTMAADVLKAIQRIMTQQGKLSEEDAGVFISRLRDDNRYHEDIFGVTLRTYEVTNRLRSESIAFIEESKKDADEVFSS
Sequence of human nNOS (P29475 whole entry): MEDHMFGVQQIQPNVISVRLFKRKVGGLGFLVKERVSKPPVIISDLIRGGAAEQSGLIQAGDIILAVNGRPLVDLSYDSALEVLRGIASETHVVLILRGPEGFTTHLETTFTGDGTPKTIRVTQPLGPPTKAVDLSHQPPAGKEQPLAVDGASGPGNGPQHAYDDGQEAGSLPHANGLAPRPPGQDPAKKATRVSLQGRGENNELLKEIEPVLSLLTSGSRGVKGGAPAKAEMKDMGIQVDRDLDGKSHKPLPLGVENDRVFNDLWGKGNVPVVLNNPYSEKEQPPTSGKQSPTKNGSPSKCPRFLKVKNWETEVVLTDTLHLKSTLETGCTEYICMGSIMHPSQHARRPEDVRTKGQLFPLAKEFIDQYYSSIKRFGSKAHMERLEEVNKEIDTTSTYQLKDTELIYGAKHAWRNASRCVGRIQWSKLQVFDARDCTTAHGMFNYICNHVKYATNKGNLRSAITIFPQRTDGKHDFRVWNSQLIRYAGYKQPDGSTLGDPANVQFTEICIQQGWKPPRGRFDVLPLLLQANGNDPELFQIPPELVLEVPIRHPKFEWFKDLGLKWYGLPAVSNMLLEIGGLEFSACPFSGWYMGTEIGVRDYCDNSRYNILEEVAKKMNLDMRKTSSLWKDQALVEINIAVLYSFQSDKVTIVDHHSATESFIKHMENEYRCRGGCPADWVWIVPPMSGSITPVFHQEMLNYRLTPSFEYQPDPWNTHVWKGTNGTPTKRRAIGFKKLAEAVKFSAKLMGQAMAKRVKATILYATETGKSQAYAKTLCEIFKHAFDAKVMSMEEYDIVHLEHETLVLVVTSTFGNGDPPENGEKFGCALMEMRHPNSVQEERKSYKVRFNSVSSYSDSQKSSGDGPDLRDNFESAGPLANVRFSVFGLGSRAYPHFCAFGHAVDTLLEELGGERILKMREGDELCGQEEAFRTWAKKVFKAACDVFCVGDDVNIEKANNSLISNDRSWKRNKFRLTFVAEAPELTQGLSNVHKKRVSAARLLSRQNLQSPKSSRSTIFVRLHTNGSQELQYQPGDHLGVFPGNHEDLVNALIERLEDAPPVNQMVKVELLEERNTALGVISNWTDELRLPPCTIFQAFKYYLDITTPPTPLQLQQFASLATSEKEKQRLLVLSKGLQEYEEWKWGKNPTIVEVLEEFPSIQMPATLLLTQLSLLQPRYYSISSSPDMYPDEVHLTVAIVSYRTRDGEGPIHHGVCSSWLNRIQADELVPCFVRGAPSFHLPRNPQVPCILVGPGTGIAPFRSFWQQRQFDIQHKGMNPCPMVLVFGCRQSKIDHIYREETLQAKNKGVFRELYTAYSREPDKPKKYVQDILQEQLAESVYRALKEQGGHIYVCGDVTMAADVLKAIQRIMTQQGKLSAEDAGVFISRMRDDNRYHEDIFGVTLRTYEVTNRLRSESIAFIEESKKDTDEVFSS

By Ki is commonly meant the equilibrium dissociation constant of an inhibitor or competing ligand from its target. `CNCC#Cc1cc(F)cc(CCc2cc(C)cc(N)n2)c1` [Compound 2, 6-(3-fluoro-5-(3-(methylamino)prop-1-yn-1-yl)phenethyl)-4-methylpyridin-2-amine]: the Ki at rat nNOS (pH 7.4, read-out: Ki rat nNOS) was 32 nM; at human nNOS (setting [1]) it was 58 nM; on murine macrophage iNOS, 7620 nM.

With `Cc1cc(N)nc(CCc2cc(F)cc(C#CCN(C)C)c2)c1` [Compound 3, 6-(3-(3-(dimethylamino)prop-1-yn-1-yl)-5-fluorophenethyl)-4-methylpyridin-2-amine], at rat nNOS, the “drop in rat nNOS potency compared to 1” value is “more than 2 fold”. The inhibition constant Ki on rat nNOS (pH 7.4, read-out: Ki rat nNOS) worked out at 58 nM; at human nNOS (setting [1]), 124 nM; at murine macrophage iNOS, 4890 nM. The “drop in human nNOS potency compared to 1” value at human nNOS is more than 4 fold.

For `Cc1cc(N)nc(CCc2cc(F)cc(CC[C@@H]3CCCN3C)c2)c1` [Compound 5, (R)-6-(3-fluoro-5-(2-(1-methylpyrrolidin-2-yl)ethyl)phenethyl)-4-methylpyridin-2-amine], the Ki amounted to 26 nM at rat nNOS (pH 7.4, read-out: Ki rat nNOS); 52 nM at human nNOS (setting [1]); 2910 nM on murine macrophage iNOS.

Regarding `Cc1cc(N)nc(CCc2cc(F)cc(CC[C@H]3CCCN3C)c2)c1` [Compound 7, (S)-6-(3-fluoro-5-(2-(1-methylpyrrolidin-2-yl)ethyl)phenethyl)-4-methylpyridin-2-amine], the Ki at rat nNOS (pH 7.4, read-out: Ki rat nNOS) turned out to be 33 nM; at human nNOS (setting [1]), 84 nM; at murine macrophage iNOS it was 3390 nM.

As for `Cc1cc(N)nc(CCc2cc(F)cc(CC[C@@H]3C[C@H](F)CN3)c2)c1` [Compound 8, 6-(3-fluoro-5-(2-((2R,4S)-4-fluoropyrrolidin-2-yl)ethyl)phenethyl)-4-methylpyridin-2-amine], the Ki at rat nNOS (pH 7.4, read-out: Ki rat nNOS) was 65 nM; on human nNOS (setting [1]), 129 nM; at murine macrophage iNOS, 4540 nM. The “drop in human nNOS potency compared to 1” value on human nNOS came to 4 fold.

On to `Cc1cc(N)nc(CCc2cc(F)cc(CC[C@@H]3C[C@H](F)CN3C)c2)c1` [Compound 9, 6-(3-fluoro-5-(2-((2R,4S)-4-fluoro-1-methylpyrrolidin-2-yl)ethyl)phenethyl)-4-methylpyridin-2-amine], for which the affinity at murine macrophage iNOS, expressed as Ki, was 5010 nM.

On to `Cc1cc(N)nc(CCc2cc(F)cc(CCCN(C)C)c2F)c1` [Compound 12, 6-(3-(3-(dimethylamino)propyl)-2,5-difluorophenethyl)-4-methylpyridin-2-amine], for which the Ki on rat nNOS (pH 7.4, read-out: Ki rat nNOS) was determined as 79 nM; at human nNOS (setting [1]), 157 nM; on murine macrophage iNOS it was 1950 nM.

With `Cc1cc(N)nc(CCc2c(F)c(F)cc(CCCN(C)C)c2F)c1` [Compound 13, 6-(3-(3-(dimethylamino)propyl)-2,5,6-trifluorophenethyl)-4-methylpyridin-2-amine], the inhibitory constant (Ki) at rat nNOS (pH 7.4, read-out: Ki rat nNOS) stood at 47 nM; on human nNOS (setting [1]), 58 nM; on murine macrophage iNOS it was 3260 nM.

For `Cc1cc(N)nc(CCc2cc(C#CCN(C)C)cc(F)c2F)c1` [Compound 16, 6-(5-(3-(dimethylamino)prop-1-yn-1-yl)-2,3-difluorophenethyl)-4-methylpyridin-2-amine], the Ki is 81 nM on rat nNOS (pH 7.4, read-out: Ki rat nNOS); 84 nM at human nNOS (setting [1]); 4410 nM on murine macrophage iNOS.

The term Papp denotes the rate of passage across a membrane or cell layer, normalised by area and donor concentration. A low value points to poor permeation. As for `Cc1cc(N)nc(CCc2cc(CC[C@@H]3CCCN3C)cc(F)c2F)c1` [Compound 17, (R)-6-(2,3-difluoro-5-(2-(1-methylpyrrolidin-2-yl)ethyl)phenethyl)-4-methylpyridin-2-amine], the Papp at 17 h, 200 μM in the data set “PAMPA-BBB assay” is approximately 18 ×10⁻⁶ cm/s.

In the data set “PAMPA-BBB assay”, `Cc1cc(N)nc(CCc2cc(CC[C@H]3CCCN3C)cc(F)c2F)c1` [Compound 18, (S)-6-(2,3-difluoro-5-(2-(1-methylpyrrolidin-2-yl)ethyl)phenethyl)-4-methylpyridin-2-amine] came in with a Papp at 17 h, 200 μM of approximately 18 ×10⁻⁶ cm/s.

Take `Cc1cc(N)nc(CCc2cc(CC[C@H]3COCCN3C)cc(F)c2F)c1` [Compound 19, (S)-6-(2,3-difluoro-5-(2-(4-methylmorpholin-3-yl)ethyl)phenethyl)-4-methylpyridin-2-amine]: the Ki at rat nNOS (pH 7.4, read-out: Ki rat nNOS) was determined as 62 nM; on human nNOS (setting [1]), 89 nM; on murine macrophage iNOS it was 3450 nM.

`CCO[C@@H]1C[C@H](CCc2cc(F)c(F)c(CCc3cc(C)cc(N)n3)c2)N(C)C1` [Compound 20, 6-(5-(2-((2S,4R)-4-ethoxy-1-methylpyrrolidin-2-yl)ethyl)-2,3-difluorophenethyl)-4-methylpyridin-2-amine]: the inhibition constant (Ki) turned out to be 55 nM at rat nNOS (pH 7.4, read-out: Ki rat nNOS); 87 nM at human nNOS (setting [1]); 4500 nM at murine macrophage iNOS.

For the compound `CNC/C=C\c1cc(F)cc(CCc2cc(C)cc(N)n2)c1` [Compound 47], the Selectivity n/i at rat nNOS (Table 4) came to 73. For the same compound, the Ki was 31 nM on rat nNOS (Table 4, read-out: Ki Rat nNOS); 77 nM at human nNOS (setting [2]); 24700 nM at human eNOS; 2280 nM at iNOS. Also, the “Selectivity nNOS human/rat” value on human nNOS (Table 4) stood at 2.5. Moreover, the “Selectivity Human n/e” value on human nNOS (Table 4) is 320. Besides, the “Pe PAMPA-BBB” value in the data set “PAMPA-BBB assay” is recorded as 10.92 ± 0.02 10^-6 cm/s.

`CNC/C=C/c1cc(F)cc(CCc2cc(C)cc(N)n2)c1` [Compound 48] gave a Selectivity n/i at rat nNOS (Table 4) of 130. For the same compound, the Ki is 21 nM on rat nNOS (Table 4, read-out: Ki Rat nNOS); 28 nM at human nNOS (setting [2]); 20200 nM at human eNOS; 2730 nM at iNOS. Also, on human nNOS (Table 4), the “Selectivity nNOS human/rat” value was 1.3. Moreover, the “Selectivity Human n/e” value on human nNOS (Table 4) was 721. The “Pe PAMPA-BBB” value in the data set “PAMPA-BBB assay” is 10.30 ± 0.02 10^-6 cm/s.

Regarding `CNCc1ccc2ncc(CCc3cc(C)cc(N)n3)cc2c1` [Compound 49], the Selectivity n/i at rat nNOS (Table 4) was determined as 99. Also, the inhibitory constant (Ki) was determined as 38 nM at rat nNOS (Table 4, read-out: Ki Rat nNOS); 36 nM on human nNOS (setting [2]); 22100 nM on human eNOS; 3760 nM on iNOS. For the same compound, at human nNOS (Table 4), the “Selectivity nNOS human/rat” value is reported as 0.9. In addition, the “Selectivity Human n/e” value on human nNOS (Table 4) is 614. The “Pe PAMPA-BBB” value in the data set “PAMPA-BBB assay” was “No permeability”.

At rat nNOS (Table 4), `CNCC#Cc1cc(F)c(F)c(CCc2cc(C)cc(N)n2)c1F` [Compound 50] registered a Selectivity n/i of 48. The Ki stood at 119 nM at rat nNOS (Table 4, read-out: Ki Rat nNOS); 168 nM on human nNOS (setting [2]); 26500 nM at human eNOS; 5780 nM on iNOS. On human nNOS (Table 4), the “Selectivity nNOS human/rat” value is 1.4. Besides, the “Selectivity Human n/e” value on human nNOS (Table 4) is reported as 157. The “Pe PAMPA-BBB” value in the data set “PAMPA-BBB assay” is 19.10 ± 0.5 10^-6 cm/s.

`Cc1cc(N)nc(CCc2c(F)c(F)cc(CC[C@@H]3CCCN3C)c2F)c1` [Compound 51] came in with a Selectivity n/i on rat nNOS (Table 4) of 88. Further, the Ki at rat nNOS (Table 4, read-out: Ki Rat nNOS) amounted to 67 nM; on human nNOS (setting [2]), 112 nM; on human eNOS, 29800 nM; at iNOS, 5880 nM. Besides, the “Selectivity nNOS human/rat” value at human nNOS (Table 4) is 1.7. For the same compound, the “Selectivity Human n/e” value on human nNOS (Table 4) is 266. Also, in the data set “PAMPA-BBB assay”, the “Pe PAMPA-BBB” value is 20 ± 0.85 10^-6 cm/s.

At rat nNOS (Table 4), `Cc1cc(N)nc(CCc2c(F)c(F)cc(CC[C@H]3CCCN3C)c2F)c1` [Compound 52] yielded a Selectivity n/i of 108. Also, the inhibition constant Ki at rat nNOS (Table 4, read-out: Ki Rat nNOS) is 93 nM; on human nNOS (setting [2]) it was 151 nM; on human eNOS, 27300 nM; at iNOS it was 10000 nM. The “Selectivity nNOS human/rat” value on human nNOS (Table 4) was determined as 1.62. Further, the “Selectivity Human n/e” value at human nNOS (Table 4) is 196. In “PAMPA-BBB assay”, the “Pe PAMPA-BBB” value is on record as 20.3 ± 0.16 10^-6 cm/s.

For `Cc1cc(N)nc(CCc2cc(CN(C)C)cc(F)c2F)c1` [Compound 54], the affinity on iNOS, expressed as Ki, was 76 nM.

For the compound `Cc1cc(N)nc(CCc2cc(CCN(C)C)cc(F)c2F)c1` [Compound 58, 6-(5-(2-(Dimethylamino)ethyl)-2,3-difluorophenethyl)-4-methylpyridin-2-amine hydrochloride], the “Pe PAMPA-BBB” value in “PAMPA-BBB assay” was 19.5 ± 1.4 10^-6 cm/s. The same compound had a Ki on iNOS of 1050 nM.

On to `CN(C)CCc1cc(F)c(F)c(CCc2cccc(N)n2)c1` [Compound 59, 6-(5-(2-(Dimethylamino)ethyl)-2,3-difluorophenethyl)pyridin-2-amine hydrochloride], for which the inhibition constant Ki is 940 nM at rat nNOS (Ki RnNOS, Table 5, Ki from IC50 by Cheng-Prusoff, 8 to 11 concentrations) and 3160 nM at human nNOS.

With `CNCCc1cc(F)c(F)c(CCc2cc(C)cc(N)n2)c1` [Compound 60, 6-(2,3-Difluoro-5-(2-(methylamino)ethyl)phenethyl)-4-methylpyridin-2-amine], the inhibitory constant (Ki) at rat nNOS is 28 nM; at human nNOS, 24 nM; on human iNOS, 1750 nM. On human nNOS (Table 5), the Selectivity hn/hi is on record as 72. This compound also displayed a Selectivity hn/rn at human nNOS (Table 5) of 1.2.

As to `CN(C)CCc1cc(F)c(F)c(CCc2cc(C(F)(F)F)cc(N)n2)c1` [Compound 64, 6-(5-(2-(Dimethylamino)ethyl)-2,3-difluorophenethyl)-4-(trifluoromethyl)pyridin-2-amine], the Ki on human eNOS is 102000 nM.

For the compound `Nc1cc(Cl)cc(OCc2cccc(F)c2F)n1` [Compound 68, 4-Chloro-6-((2,3-difluorobenzyl)oxy)pyridin-2-aminehydrochloride], the inhibition constant Ki on rat nNOS (read-out: Ki RnNOS) was 102000 nM.

For the compound `CNCCCc1cc(C)cc(N)n1` [Compound 70, 4-Methyl-6-(3-(methylamino)propyl)pyridin-2-amine hydrochloride], the inhibition constant (Ki) is 29 nM at rat nNOS (setting [3]), 21 nM at human nNOS (setting [4]) and 669 nM at human iNOS (setting [5]). On human nNOS (Table 5), the Selectivity hn/rn is 1.4.

Take `CNCC#Cc1cc(C)cc(N)n1` [Compound 71, 4-Methyl-6-(3-(methylamino)prop-1-yn-1-yl)pyridin-2-amine hydrochloride]: the figures for the Ki at rat nNOS (setting [3]), on human nNOS (setting [4]) and at human iNOS (setting [5]) were 88 nM, 92 nM and 3580 nM, respectively. The compound further showed a Selectivity hn/rn on human nNOS (Table 5) of 1.0.
